The text below walks through data of article PMC6959544 (Bioorganic & medicinal chemistry, 2017).

One experiment deals with hTRPV1 (Homo sapiens, UniProt Q8NER1). Put plainly: In vitro hTRPV1 antagonism: inhibition of activation by capsaicin. It counts as cell-based. The note with it: hTRPV1 in CHO cells, capsaicin 100 nM, FLIPR.
Experiment [1] concerns capsaicin-induced hypothermia. Put plainly: Capsaicin-induced hypothermia. The experiment is classed as in vivo. As to conditions: data not shown.
Experiment [2] relates to CCI-induced cold allodynia (Bennett mouse model of neuropathic pain). Description: Analgesic activity on CCI-induced cold allodynia. It counts as in vivo. The note with it: oral.

Sequence of hTRPV1 (Q8NER1 whole entry): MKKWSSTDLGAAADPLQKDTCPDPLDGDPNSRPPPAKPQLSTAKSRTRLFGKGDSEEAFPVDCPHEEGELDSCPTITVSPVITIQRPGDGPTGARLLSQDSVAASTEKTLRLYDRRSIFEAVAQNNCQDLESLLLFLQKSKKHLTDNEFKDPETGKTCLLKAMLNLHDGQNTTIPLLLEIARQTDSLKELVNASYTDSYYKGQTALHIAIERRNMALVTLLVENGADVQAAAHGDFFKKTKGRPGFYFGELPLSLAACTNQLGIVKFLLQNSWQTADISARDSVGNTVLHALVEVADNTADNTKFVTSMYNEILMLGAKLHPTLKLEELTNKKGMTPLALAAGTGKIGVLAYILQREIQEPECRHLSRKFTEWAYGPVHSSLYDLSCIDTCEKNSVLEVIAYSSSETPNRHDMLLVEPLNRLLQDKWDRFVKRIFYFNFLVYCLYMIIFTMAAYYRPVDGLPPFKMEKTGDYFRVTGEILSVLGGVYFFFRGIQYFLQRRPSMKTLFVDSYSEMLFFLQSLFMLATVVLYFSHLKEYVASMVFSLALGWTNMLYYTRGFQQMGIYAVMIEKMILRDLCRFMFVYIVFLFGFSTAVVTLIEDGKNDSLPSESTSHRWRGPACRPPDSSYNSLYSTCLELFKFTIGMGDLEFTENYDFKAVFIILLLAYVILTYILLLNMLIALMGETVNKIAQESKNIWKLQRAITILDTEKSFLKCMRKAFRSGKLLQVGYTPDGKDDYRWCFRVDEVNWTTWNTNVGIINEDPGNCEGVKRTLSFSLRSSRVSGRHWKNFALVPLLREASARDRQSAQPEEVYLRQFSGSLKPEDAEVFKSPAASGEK

For `CC(C(=O)NCc1ccc(C(C)(C)C)nc1OCc1ccc(F)cc1)c1ccc(NS(C)(=O)=O)c(F)c1` (centres unmarked) [Compound 23, N-((6-(tert-Butyl)-2-((4-fluorobenzyl)oxy)pyridin-3-yl)methyl)-2-(3-fluoro-4-(methylsulfonamido)phenyl)propanamide], the “hTRPV1 antagonism (in words)” value on hTRPV1 is on record as “good antagonism”.
Consider `C[C@H](C(=O)NCc1ccc(C(C)(C)C)nc1SC1CCCCC1)c1ccc(NS(C)(=O)=O)c(F)c1` [Compound 34S], for which the “capsaicin-induced hypothermia, % MPE” value in experiment [1] (3 mg/kg po) is 46 % MPE; in experiment [1] (10 mg/kg po), 15 % MPE. Besides, in experiment [2] (3 mg/kg), the “antiallodynic effect on cold allodynia, % MPE” value is recorded as “greater than 50 % MPE”. Besides, the “in vivo functional character (in words)” value in experiment [2] (10 mg/kg) was “partial agonism”. In experiment [2] (dose increased from 3 mg/kg to 10 mg/kg), the “antiallodynic activity (in words)” value is recorded as “decreased antiallodynic activity”.
“N-((6-(tert-Butyl)-2-(cyclohexyloxy)pyridin-3-yl)methyl)-2-(3-fluoro-4-(methylsulfonamido)phenyl)propanamide [Compound 21]”: the “hTRPV1 antagonism (in words)” value at hTRPV1 is given as “clear reduction in potency”.
Still for that read-out and setting: the result for “N-((6-(tert-Butyl)-2-(cyclopentyloxy)pyridin-3-yl)methyl)-2-(3-fluoro-4-(methylsulfonamido)phenyl)propanamide [Compound 20]” reads “clear reduction in potency”.
